# From EP2323645B1, “USE OF LOW-DOSE LOCAL ANAESTHETIC OR DERIVATIVES THEREOF FOR THERAPY OF CHRONIC PAIN, ESPECIALLY MIGRAINE” (priority 2008, dated 2010)
# Legend:
# [1] = system: Kopfschmerzen vom Spannungstyp; assay: Comparative trial of lidocaine, mepivacaine and bupivacaine in tension-type headache (infiltration anaesthesia C1 to C3); format: in vivo, Patienten; details: equipotent dilution 1:5 (Lidocain 0,1 Gew.-%, Bupivacain 0,05 Gew.-%, Mepivacain 0,1 Gew.-%), twice daily for 7 days, 3 male patients, 10-point pain scale
# [2] = system: Phantom- oder Stumpfschmerz; details: 0,1 - 1,0 ml of 1 % solution; Gross, Anaesthesist 1985; cited from earlier work
# [3] = system: Kopfschmerzen; details: 0,5 %, cervical intramuscular injection; Mellick et al. 2006; cited from earlier work
# [4] = system: neuropathischen Schmerzen; details: 0.2 %, repeated epidural administration, rat model; Chiyo et al. 2008; cited from earlier work
# [5] = system: Neuralgien; details: 5 %; Katsushi et al.; cited from earlier work
# [6] = system: Migräne; assay: Treatment of migraine by local deep paravertebral injection of low-dose lidocaine; format: in vivo, Patienten; details: 0,1 Gew.-% in Ringer solution, usually 2 to 4 injections per session; within a few minutes; complete freedom from pain and complaints without typical relapse tendency
# Description: (§1) Art und Umfang der beklagten Schmerzen und Beschwerden bestimmen unter (ausschließlich) neuroanatomischen und funktionspathologischen Gesichtspunkten die ursachenorientierte Auswahl von Injektionsort, Injektionsmenge und Injektionstiefe sowie die Auswahl der verwendeten Injektionskanülen, z.B. innerhalb einer Bandbreite zwischen 20 und 100 mm Länge, bei grundsätzlich identischer, jedoch gegenüber herkömmlicher Verfahrensweise grundlegend veränderter, Injektionstechnik (siehe z.B. Figuren 1 bis 3).
# (§2) Vor Behandlungsbeginn werden mit Ausnahme von Benzodiazepinderivaten sämtliche "schmerz- und beschwerdespezifische" Medikamente spontan abgesetzt. Benzodiazepinderivate werden schleichend eliminiert.
# Anzahl der Injektionen und Injektionsorte sind abhängig vom aktuellen Untersuchungsbefund sowie von Patientenangaben zu Schmerzen und Beschwerden. Bevorzugt werden tiefe paravertebrale Injektionen von dorsal in antero-lateraler Stichführung in Gewebe der oberen Halswirbelsäule (s. Figur 2) oder der oberen Brustwirbelsäule (s. Figur 1) vorgenommen, je Behandlungssitzung in der Regel 2 bis 4 Injektionen.
# (s. Figur 2: Einstichpunkte im Bereich der oberen und mittleren Halswirbelsäule) • Ergebnis: Der Patient war nach 2 ½ Behandlungstagen und seither dauerhaft schmerz- und beschwerdefrei.
# [7] = system: spinaler Nozizeptoren; assay: Blockade of spinal nociceptors in healthy volunteers; format: in vivo, gesunden Probanden
# Description: Die Verabreichung des hier beschriebenen niedrig-dosierten Lidocains oder eines 3-OH-oder 4-OH-Derivats davon in den hier beschriebenen niederen Konzentrationen, z.B. in der erfindungsgemäßen pharmazeutischen Zusammensetzung, kann, insbesondere in der Migräne-Therapie, durch Infiltrations-Anästhesie stattfinden, bspw. durch gezielte, simultane Infiltrations-Anästhesien an der Schädelbasis (ventrale Äste von C1) sowie der ventralen Äste der Spinal-Nerven C2 und C3 unter Anwendung einer pharmakologisch und technisch ziel- und zweckoptimierten Methode. Unter Einsatz der erfindungsgemäßen pharmazeutischen Zusammensetzungen lassen sich die oben beschriebenen Migräne-Schmerzen sowie die Symptome einer vestibulären Dysfunktion - Übelkeit und Schwindel - unabhängig von der vorbestehenden Anfallsdauer einer Migräne spontan und definitiv abortieren. Die Konzentration des dafür verwendeten Lidocains oder eines 3-OH- oder 4-OH-Derivats davon in der erfindungsgemäßen pharmazeutischen Zusammensetzung ist bevorzugt so eingestellt, dass keine motorischen oder Sensibilitäts-Störungen auftreten.
# [8] = system: chronisches LWS-Syndrom; assay: Treatment of therapy-resistant chronic pain of hips, legs and feet (chronic lumbar spine syndrome); format: in vivo, Patienten; details: single case, patient, left-sided syndrome for 10 years, repetitive injections L3 to L5 left
# Description: as §1
# Behandlung: 2 bis 4 tiefe, seitengleiche paravertebrale Injektionen in Gewebe der mittleren und unteren Lendenwirbelsäule bzw. der oberen Kreuzbeinregion (: L3 bis SI alternierend).
# Aktueller Fall: • 71-jähriger Patient. Seit 10 Jahren progrediente Krankheitsentwicklung eines chronischen, linksseitigen LWS-Syndroms mit belastungsabhängigen Schmerzen und • Taubheitsgefühl in Oberschenkel und Knie sowie belastungsabhängigem, progredientem Kraftverlust des linken Beines. • Behandlung: Repetitive paravertebrale Injektionen L3 bis L5 links. • Ergebnis: Vollständige Remission aller Beschwerden nach 10 Behandlungssitzungen.
# [9] = system: Trigeminusneuralgie; assay: Treatment of trigeminal neuralgia; format: in vivo, Patienten; details: superficial wide-area injection of the affected nerve branch; as a rule; rarely one or two repeat injections needed
# Description: as §1
# Behandlung: Oberflächliche, großflächig ausgebrachte Injektion des betroffenen Nervenastes am Ort seiner stärksten Irritation;
# [10] = system: therapieresistenter chronischer Schulter-Arm-Schmerzen; assay: Treatment of therapy-resistant chronic shoulder-arm pain; format: in vivo, Patienten; details: 2 to 4 deep paravertebral injections, middle cervical spine, 0,1 Gew.-%
# Description: as §1
# Behandlung: 2 bis 4 tiefe, seitengleiche paravertebrale Injektionen in Gewebe der mittleren Halswirbelsäule.
# [11] = system: Menstruationsbeschwerden (Menorrhagien); details: as a rule after two to four further identical sessions
# [12] = system: akuter kleinflächiger Verletzungen; assay: Treatment of acute small-area injuries
# [13] = system: chronischer Verletzungen; assay: Treatment of chronic injuries
# [14] = system: episodischer und chronischer Kopfschmerzen vom Spannungs-Typ; assay: Treatment of episodic and chronic tension-type headache; format: in vivo, Patienten
# Description: as §1, §2
# Behandlung: Die Anzahl der Injektionen und Injektionsorte sind abhängig vom aktuellen Untersuchungsbefund sowie von Patientenangaben zu Schmerzen und Beschwerden. Bevorzugt werden tiefe paravertebrale Injektionen in Gewebe der oberen und mittleren Halswirbelsäule vorgenommen, je Behandlungssitzung in der Regel 6 bis 8 Injektionen mit gegenüber der vorbeschriebenen Migräne-Behandlung geringerer Einstichtiefe.
# [15] = system: Occipitalisneuralgie; assay: Treatment of occipital neuralgia; format: in vivo, Patienten
# Description: as §1
# Behandlung: Je nach Untersuchungsbefund oberflächliche, großflächig ausgebrachte oder tiefe Injektionen des bzw. der betroffenen Nervenäste;
# [16] = system: chronischer Migräne; assay: Retrospective analysis of 84 chronic migraine patients treated with repeated deep dorsal cervico-thoracic sympathetic blocks; details: for Rückgang aller Schmerzen und Begleitsymptome auf: end of treatment
smiles,measurement,setting,value
Cc1cccc(C)c1NC(=O)C1CCCCN1C (centres unmarked) [Mepivacain],Wirkung und Therapieeffekt gegenüber Lidocain,[1],etwa vergleichbare Wirkung und Therapieeffekt
same,Patienten nachweisbar effektiv behandelt,[2],ca. 80%
CCCCN1CCCCC1C(=O)Nc1c(C)cccc1C (centres unmarked) [Bupivacain],Wirkung und Therapieeffekt gegenüber Lidocain,[1],etwa vergleichbare Wirkung und Therapieeffekt
same,Behandlungsergebnis,[3],erfolgreich behandelt
CCCN1CCCC[C@H]1C(=O)Nc1c(C)cccc1C [Ropivacain],analgetischer Effekt,[4],lang anhaltenden analgetischen Effekt
CCCCNc1ccc(C(=O)OCCN(C)C)cc1 [Tetracain],Behandlungsergebnis,[5],effektive Behandlung
CCN(CC)CC(=O)Nc1c(C)cccc1C [Lidocain],Anfallsdurchbrechung,[6],vollständige Anfallsdurchbrechung
same,Beeinträchtigung der Sensibilität,[7],ohne Beeinträchtigung der Sensibilität
same,Vollständige Remission aller Beschwerden nach,[8],10 Behandlungssitzungen
same,Ergebnis,[9],Spontan-Remission
same,Remission von Schmerzen und Beschwerden,[10],Spontane Remission
same,Blutungsmenge und Blutungsdauer,[11],vollständige Normalisierung
same,Sensibilitätsstörungen,[12]; in vivo,ohne Sensibilitätsstörungen
same,(Wund-)Heilungsdauer,"[12]; one or two repetitions at 24-hour intervals, as a rule",Halbierung der sonst üblichen (Wund-)Heilungsdauer
same,Schmerzfreiheit,[12]; superficial injections into the traumatised tissue,spontane Schmerzfreiheit
same,Sensibilitätsstörungen,[13]; in vivo,ohne Sensibilitätsstörungen
same,Remission,[13]; multiple repetition at 24-hour intervals,schrittweisen und i.d.R. vollständigen Remission
same,Schmerzreduktion,[13]; targeted injections into the traumatised tissue,spontane Schmerzreduktion
same,Ergebnis der Repetition der Behandlung,"[14]; repeated treatment, stepwise lengthening of pain-free intervals",dauerhaften Schmerzfreiheit
same,Sensibilitätsstörungen,"[14]; typical case, 0,1 Gew.-%",ohne die von Injektionen mit herkömmlicher Lokalanästhetika-Konzentration bekannten Sensibilitätsstörungen
same,Ergebnis Tiefe Nervenäste,"[15]; deep nerve branches, repeat injections necessary",eher verzögert
same,Ergebnis oberflächliche Nervenäste,"[15]; superficial nerve branches, as a rule, rarely one or two repeat injections",Spontan-Remission
same,Rückgang aller Schmerzen und Begleitsymptome auf,[16]; 4-week treatment group (n=21),"3,2%"
same,Rückgang aller Schmerzen und Begleitsymptome auf,[16]; 5-week treatment group (n=43),"1,1%"
same,Rückgang aller Schmerzen und Begleitsymptome auf,[16]; 6-week treatment group (n=20),"1,0%"
same,lang anhaltender therapeutischer Effekt,"[16]; after end of the treatment period, together with instructions on posture and lifestyle",mindestens einigen Jahren
same,Rückgang der Gesamtsummen aller Schmerz-Intensitäten und Migräne-Begleitsymptome auf,"[16]; end of first week, all treatment periods of 4, 5 or 6 weeks, relative to last severe attack without medication, twice daily",< 10%
same,Kopfschmerzen vom Spannungs-Typ,[16]; patients with concomitant tension-type headache,schrittweise bis zum Ende jeder Behandlungs-Periode beseitigt
same,Allgemeinbefinden,[16]; under treatment,positive Zunahme
